Measurements: patent publication US20260215418A1, “HYDROCARBON ALCOHOLS AND THEIR DERIVATIVES AS SYNERGISTS IN PESTICIDE ACTIVITY” (priority 2022, published 2026)

Key:
Assay type in all cases: in vivo
[1] = test system: Musca domestica L.; test: Contact test on non-porous tile, Musca domestica
Description: 1 ml of Composition 1 was applied to the tile. […] 1 ml of Composition 8a was distributed on the tile. […] 1 ml of Composition 8a was distributed on a tile. […] At the end of the 30 minutes, the flies were transferred to an untreated area.
1 ml of Composition 3 was applied to the tile. […] 1 ml of Composition 8c was distributed on the tile. […] 1 ml of Composition 8c was distributed on a tile. […] At the end of the 30 minutes, the flies were transferred to an untreated area.
1 ml of Composition 9a was distributed on the tile. […] 1 ml of Composition 9a was distributed on a tile. […] At the end of the 30 minutes, the flies were transferred to an untreated area. […] 1 ml of Composition 10a was distributed on the tile. […] 1 ml of Composition 10a was distributed on a tile. […] At the end of the 30 minutes, the flies were transferred to an untreated area. […] 1 ml of Composition 8c was distributed on the tile. […] 1 ml of Composition 8c was distributed on a tile. […] At the end of the 30 minutes, the flies were transferred to an untreated area.
1 ml of Composition 5a, was distributed on the tile. […] 1 ml of Composition 6a was distributed on the tile. […] 1 ml of Composition 7a was distributed on the tile.
1 ml of Composition 3 was distributed on the tile. […] 1 ml of Composition 9a was distributed on the tile. […] 1 ml of Composition 11a was distributed on a tile. […] 1 ml of Composition 12a was distributed on a tile.
1 ml of Composition 3 was distributed on the tile. […] 1 ml of Composition 17a was distributed on a tile. […] 1 ml of Composition 18a was distributed on a tile. […] Each experiment (A-C) was conducted in duplicate.
1 ml of Composition 23a was distributed on the tile. […] 1 ml of Composition 20a was distributed on a tile. […] Each experiment (A-B) was conducted in duplicate.
1 ml of Composition 3 was distributed on the tile. […] 1 ml of Composition 25a was distributed on a tile. […] Each experiment (A-B) was conducted in duplicate.
1 ml of Composition 23a was distributed on the tile. […] 1 ml of Composition 27a was distributed on a tile. […] Each experiment (A-B) was conducted in duplicate.
1 ml of Composition 26a was distributed on a tile. […] 1 ml of Composition 26b was distributed on a tile. […] 1 ml of Composition 26c was distributed on a tile.
1 ml of Composition 22a was distributed on a tile. […] 1 ml of Composition 22b was distributed on a tile. […] 1 ml of Composition 22c was distributed on a tile.
1 ml of Composition 23a was distributed on the tile. […] 1 ml of Composition 44a was distributed on a tile.
1 ml of Composition 33 was distributed on a tile. […] 1 ml of Composition 33 was distributed on a tile. […] At the end of the 30 minutes, the flies were transferred to an untreated area.
1 ml of Composition 1 was distributed on the tile. […] 1 ml of Composition 34 was distributed on a tile. […] 1 ml of Composition 34 was distributed on a tile. […] At the end of the 30 minutes, the flies were transferred to an untreated area.
1 ml of Composition 3 was distributed on the tile. […] 1 ml of Composition 31a was distributed on a tile. […] 1 ml of Composition 31b was distributed on a tile. […] 1 ml of Composition 31b was distributed on a tile. […] At the end of the 30 minutes, the flies were transferred to an untreated area. […] 1 ml of Composition 38a was distributed on a tile. […] 1 ml of Composition 38a was distributed on a tile. […] At the end of the 30 minutes, the flies were transferred to an untreated area.
G) According to the invention. 1 ml of Composition 40a was distributed on a tile. […] Subsequently, after waiting for the solvent to evaporate, 10 flies were placed on top of the treated til

[2] = test system: Blatta lateralis; test: Contact test on non-porous tile, Blatta lateralis; conditions: Blatta lateralis
Description: 1 ml of Composition 24 was distributed on the tile. […] 1 ml of Composition 20c was distributed on a tile. […] 1 ml of Composition 20d was distributed on a tile.
1 ml of Composition 24 was distributed on the tile. […] 1 ml of Composition 28 was distributed on a tile. […] Each experiment (A-B) was conducted in duplicate.
1 ml of Composition 24 was distributed on the tile. […] 1 ml of Composition 21 was distributed on a tile.
1 ml of Composition 4b was distributed on the tile. […] 1 ml of Composition 31c was distributed on a tile. […] 1 ml of Composition 31d was distributed on a tile. […] 1 ml of Composition 31d was distributed on a tile.
1 ml of Composition 24 was distributed on the tile. […] 1 ml of Composition 35 was distributed on a tile. […] 1 ml of Composition 40b was distributed on a tile. […] 1 ml of Composition 42 was distributed on a tile.

[3] = test system: Blattella germanica; test: Contact test on non-porous tile, Blattella germanica; conditions: 24 h; for Mortality %/time (h) (application): Table 37, Blattella germanica, concentrations in mg/ml in label
Description: 1 ml of Composition 36 was distributed on the tile. […] 1 ml of Composition 37 was distributed on a tile.

Compound	synergizing effect on Azamethiphos ([1]; Musca domestica L., synergist applied with Azamethiphos)	synergizing effect on Cypermethrin ([1]; Musca domestica L., synergist applied with Cypermethrin)	synergizing effect on Pyrethrins ([1]; Musca domestica L., synergist applied with Pyrethrins)	synergizing effect on Spinosad ([1]; Musca domestica L., synergist applied with Spinosad)	mortality at 390 µg/mL ([1]; Musca domestica, single substance alone, 0.39 mg/ml, 48 h, read-out: Mortality %/time (h))	mortality at 680 µg/mL ([1]; Musca domestica, single substance alone, 0.68 mg/ml, 48 h, read-out: Mortality %/time (h))	mortality at 1050 µg/mL ([1]; Musca domestica, single substance alone, 1.05 mg/ml, 48 h, read-out: Mortality %/time (h))	mortality at 2340 µg/mL ([1]; Musca domestica, single substance alone, 2.34 mg/ml, 48 h, read-out: Mortality %/time (h))	synergizing effect on Cypermethrin ([2]; synergist applied with Cypermethrin)	synergizing effect on Imidacloprid ([2]; synergist applied with Imidacloprid)	Mortality % ([3]; Example 34, 25° C, insects on treated tile)	Mortality %/time (h) (application) [3]
CCCCC(O)CO (stereo not shown) [1,2-hexandiol]	excellent synergizing effect	excellent synergizing effect	good synergizing effect	good synergizing effect	4%	7%	10%	23%	good synergizing effect	excellent synergizing effect		
O=[N+]([O-])NC1=NCCN1Cc1ccc(Cl)nc1 [Composition 36, Imidacloprid, reference compound]											27%	27/24 ^ %
Oleic alcohol [Composition 37]												7/24 ^ %
